Key:
[1] = biological target: T1, Choline O-acetyltransferase (Rattus norvegicus) (UniProt P32738); experiment: IC50 (hBuChE/hAChE) ratio of the compound
T1 sequence (whole entry): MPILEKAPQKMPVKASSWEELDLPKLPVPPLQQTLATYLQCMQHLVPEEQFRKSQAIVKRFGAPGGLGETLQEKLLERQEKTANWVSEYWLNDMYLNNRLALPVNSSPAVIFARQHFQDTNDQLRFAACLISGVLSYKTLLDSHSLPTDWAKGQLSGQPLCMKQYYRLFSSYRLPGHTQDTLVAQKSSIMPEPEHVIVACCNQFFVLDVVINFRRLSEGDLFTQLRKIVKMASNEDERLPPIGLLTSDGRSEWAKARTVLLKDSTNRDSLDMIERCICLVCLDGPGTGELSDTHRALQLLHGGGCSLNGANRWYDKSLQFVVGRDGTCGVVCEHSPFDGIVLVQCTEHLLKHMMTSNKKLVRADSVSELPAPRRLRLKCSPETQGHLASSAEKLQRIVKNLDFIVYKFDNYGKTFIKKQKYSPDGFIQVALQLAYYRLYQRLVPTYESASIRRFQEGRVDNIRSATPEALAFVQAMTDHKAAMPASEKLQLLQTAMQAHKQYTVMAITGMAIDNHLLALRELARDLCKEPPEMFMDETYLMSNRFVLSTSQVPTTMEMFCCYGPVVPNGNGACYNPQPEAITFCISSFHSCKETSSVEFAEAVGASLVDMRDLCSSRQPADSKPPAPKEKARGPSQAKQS

Acetylcholinesterase [2] = biological target: Acetylcholinesterase (Homo sapiens, UniProt P22303)
Acetylcholinesterase (Homo sapiens, UniProt P22303), sequence (P22303 whole entry): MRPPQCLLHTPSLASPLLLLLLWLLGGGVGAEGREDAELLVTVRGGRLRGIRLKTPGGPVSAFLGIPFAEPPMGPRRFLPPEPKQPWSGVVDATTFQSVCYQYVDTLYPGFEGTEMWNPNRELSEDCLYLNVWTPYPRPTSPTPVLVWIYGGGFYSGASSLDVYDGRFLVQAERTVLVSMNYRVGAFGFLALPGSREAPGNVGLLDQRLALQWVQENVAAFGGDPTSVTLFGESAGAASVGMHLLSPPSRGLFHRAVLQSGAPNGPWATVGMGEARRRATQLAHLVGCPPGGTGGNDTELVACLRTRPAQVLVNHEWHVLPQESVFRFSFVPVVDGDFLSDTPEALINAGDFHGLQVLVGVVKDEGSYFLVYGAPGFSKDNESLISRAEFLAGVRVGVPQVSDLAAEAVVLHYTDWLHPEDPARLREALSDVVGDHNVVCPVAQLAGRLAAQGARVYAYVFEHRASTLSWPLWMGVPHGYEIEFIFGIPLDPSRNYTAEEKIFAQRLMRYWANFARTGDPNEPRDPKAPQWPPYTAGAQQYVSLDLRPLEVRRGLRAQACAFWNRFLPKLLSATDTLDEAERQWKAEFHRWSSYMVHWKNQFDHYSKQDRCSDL
Description: In vitro inhibition of acetylcholinesterase from human erythrocytes

Acetylcholinesterase [3] = biological target: Acetylcholinesterase (Electrophorus electricus, UniProt O42275)
Acetylcholinesterase (Electrophorus electricus, UniProt O42275), sequence (O42275 whole entry): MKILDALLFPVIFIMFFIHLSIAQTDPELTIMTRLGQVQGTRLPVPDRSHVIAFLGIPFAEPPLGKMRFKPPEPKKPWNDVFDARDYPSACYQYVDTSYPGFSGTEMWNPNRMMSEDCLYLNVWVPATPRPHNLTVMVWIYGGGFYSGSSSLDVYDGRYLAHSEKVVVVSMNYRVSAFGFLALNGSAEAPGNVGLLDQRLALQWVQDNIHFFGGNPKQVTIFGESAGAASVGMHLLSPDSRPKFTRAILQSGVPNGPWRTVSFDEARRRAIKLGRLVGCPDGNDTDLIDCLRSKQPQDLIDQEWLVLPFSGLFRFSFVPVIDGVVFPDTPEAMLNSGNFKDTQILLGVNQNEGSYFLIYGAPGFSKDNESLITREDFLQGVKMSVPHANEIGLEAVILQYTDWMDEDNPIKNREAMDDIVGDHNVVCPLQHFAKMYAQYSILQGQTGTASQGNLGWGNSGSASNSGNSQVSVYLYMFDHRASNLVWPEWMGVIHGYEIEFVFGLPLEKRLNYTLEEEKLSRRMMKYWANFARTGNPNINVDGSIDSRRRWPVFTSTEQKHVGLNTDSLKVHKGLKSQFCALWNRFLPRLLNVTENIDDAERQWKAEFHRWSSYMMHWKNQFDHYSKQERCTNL
Description: In vitro inhibition of electric eel acetylcholinesterase

Cholinesterase = Cholinesterase (Homo sapiens, UniProt P06276)
Cholinesterase, sequence (P06276 whole entry): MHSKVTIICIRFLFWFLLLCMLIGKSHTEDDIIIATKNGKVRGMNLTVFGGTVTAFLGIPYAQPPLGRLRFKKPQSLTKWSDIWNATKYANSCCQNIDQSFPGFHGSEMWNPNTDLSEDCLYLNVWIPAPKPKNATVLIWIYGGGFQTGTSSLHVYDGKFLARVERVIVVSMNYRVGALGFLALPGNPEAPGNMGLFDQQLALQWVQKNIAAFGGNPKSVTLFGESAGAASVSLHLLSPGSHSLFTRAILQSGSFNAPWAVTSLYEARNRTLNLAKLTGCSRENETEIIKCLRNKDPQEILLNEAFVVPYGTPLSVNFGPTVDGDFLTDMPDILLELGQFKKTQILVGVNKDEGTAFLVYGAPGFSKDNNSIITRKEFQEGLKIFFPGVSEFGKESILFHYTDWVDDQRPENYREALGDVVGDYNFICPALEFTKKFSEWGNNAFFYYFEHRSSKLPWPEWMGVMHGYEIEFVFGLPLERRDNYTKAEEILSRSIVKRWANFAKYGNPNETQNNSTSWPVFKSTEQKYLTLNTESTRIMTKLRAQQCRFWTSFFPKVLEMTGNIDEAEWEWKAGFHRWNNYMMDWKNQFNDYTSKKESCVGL
Description: Inhibition of butyrylcholinesterase from human serum

Compound | IC50 ratio [1] | IC50 (Acetylcholinesterase [2]) [nM] | IC50 (Acetylcholinesterase [3]) [nM] | IC50 (Cholinesterase) [nM]
Cc1cc(=NCCC2CCN(Cc3ccccc3)CC2)[nH]nc1-c1ccccc1 | 24 | 39 | 21 | 940
CN(C)c1ccc(-c2ccc(NCCC3CCN(Cc4ccccc4)CC3)nn2)cc1 |  |  | 210 | 
COc1ccc(NCCC2CCN(Cc3ccccc3)CC2)nn1 |  |  | 220 | 
CCc1cc(=NCCC2CCN(Cc3ccccc3)CC2)[nH]nc1-c1ccccc1 | 14 | 66 | 27 | 920
Clc1ccccc1-c1ccc(NCCC2CCN(Cc3ccccc3)CC2)nn1 |  |  | 80 | 
c1ccc(CN2CCC(CCNc3cccnn3)CC2)cc1 |  |  | 240 | 
CC(=O)c1cccc(-c2ccc(NCCC3CCN(Cc4ccccc4)CC3)nn2)c1 |  |  | 54 | 
Cc1cc(C)c(-c2ccc(NCCC3CCN(Cc4ccccc4)CC3)nn2)c(C)c1 |  |  | 3000 | 
c1ccc(CN2CCC(CCN=c3[nH]nc(-c4ccccc4)c4ccccc34)CC2)cc1 |  |  | 440 | 
CC(=O)Nc1cccc(-c2ccc(NCCC3CCN(Cc4ccccc4)CC3)nn2)c1 |  |  | 58 | 
c1ccc(CN2CCC(CCSc3ccc(-c4ccccc4)nn3)CC2)cc1 |  | 470 | 63000 | 480
c1ccc(CN2CCC(CCNc3cc4ccc5ccccc5c4nn3)CC2)cc1 |  | 190 | 22 | 270
O=C(CNc1ccc(-c2ccccc2)nn1)N1CCN(Cc2ccccc2)CC1 |  |  | 15000 | 
CCCc1cc(=NCCC2CCN(Cc3ccccc3)CC2)[nH]nc1-c1ccccc1 |  |  | 61 | 
c1ccc(CN2CCC(CCN=c3cc4c(n[nH]3)-c3ccccc3C4)CC2)cc1 | 3.1 | 74 | 10 | 230
c1ccc(CN2CCC(CCNc3ccc(-c4cccnc4)nn3)CC2)cc1 |  |  | 57 | 
N#Cc1ccc(-c2ccc(NCCC3CCN(Cc4ccccc4)CC3)nn2)cc1 |  |  | 100 | 
c1ccc(CN2CCC(CCNc3ccc(-c4ccc5ccccc5c4)nn3)CC2)cc1 |  |  | 56 | 

Compound | IC50 ratio [1] | IC50 (Acetylcholinesterase [2]) [nM] | IC50 (Acetylcholinesterase [3]) [nM] | IC50 (Cholinesterase) [nM]
CCc1ccccc1-c1ccc(NCCC2CCN(Cc3ccccc3)CC2)nn1 |  |  | 87 | 
CC(C)c1cc(-c2ccccc2)nnc1NCCC1CCN(Cc2ccccc2)CC1 |  |  | 430 | 
Cc1ccccc1-c1ccc(NCCC2CCN(Cc3ccccc3)CC2)nn1 |  |  | 90 | 
COc1ccccc1-c1ccc(NCCC2CCN(Cc3ccccc3)CC2)nn1 |  |  | 110 | 
c1ccc(CN2CCC(CCNc3cc4c(nn3)-c3ccccc3CC4)CC2)cc1 | 1.5 | 190 | 39 | 280
c1ccc(CN2CCC(CCOc3ccc(-c4ccccc4)nn3)CC2)cc1 |  | 710 | 140000 | 1600
O=C(CNc1ccc(-c2ccccc2)nn1)N1CCC(Cc2ccccc2)CC1 |  |  | 120000 | 
O=C(CC1CCN(Cc2ccccc2)CC1)Nc1ccc(-c2ccccc2)nn1 |  |  | 4200 | 
FC(F)(F)c1cc(-c2ccc(NCCC3CCN(Cc4ccccc4)CC3)nn2)cc(C(F)(F)F)c1 |  |  | 56 | 
Fc1ccc(-c2ccc(NCCC3CCN(Cc4ccccc4)CC3)nn2)cc1 |  |  | 350 | 
c1ccc(CN2CCC(CCNc3cc4c(nn3)-c3ccccc3CCC4)CC2)cc1 |  | 120 | 22 | 510
O=C(CN1CCN(Cc2ccccc2)CC1)Nc1ccc(-c2ccccc2)nn1 |  |  | 17000 | 
c1ccc(CN2CCC(CCNc3ccc(-c4cccs4)nn3)CC2)cc1 |  |  | 97 | 
c1ccc(CN2CCC(CCNc3ccc(-c4ccccc4)nn3)CC2)cc1 | 5 |  | 120 | 
Cc1cc(-c2ccccc2)nnc1NCCC1CCN(Cc2ccccc2)CC1 |  |  | 320 | 
Clc1ccc(NCCC2CCN(Cc3ccccc3)CC2)nn1 |  |  | 73 | 
c1ccc(CC2CCN(CCNc3ccc(-c4ccccc4)nn3)CC2)cc1 |  |  | 24000 | 
O=C(CN1CCC(Cc2ccccc2)CC1)Nc1ccc(-c2ccccc2)nn1 |  |  | 18000 | 

Reference: ChEMBL document CHEMBL1134774, “Design, synthesis, and structure-activity relationships of a series of 3-[2-(1-benzylpiperidin-4-yl)ethylamino]pyridazine derivatives as acetylcholinesterase inhibitors” (J Med Chem, 2001)
